Reference: US7704756B2, “Fluorogenic dyes” (Novartis Vaccines and Diagnostics, Inc., priority 2003, dated 2010)

How the values were obtained:
[1] = pH 7.5 buffer
Description: An experiment was conducted to test the ability of compound 12 to respond to reducing conditions. Two incubations were performed: in the first, a control incubation, a sample of compound 12 was added to pH 7.5 buffer. In a second incubation (+DTT), the same amount of compound 12 was added to pH 7.5 buffer and then DTT was added to a final concentration of 10 mM.

[2] = Reporter selectively fluorescent under reducing conditions (DTT versus control buffer); type: physicochemical; conditions: compound 9 at 50 mM
Description: An experiment was conducted to determine the effect of reducing conditions versus non-reducing conditions on a reporter compound according to the invention (compound 9). Two incubations were conducted with compound 9 at a concentration of 50 mM. A control incubation was conducted which compared the same molar concentration of compound 9 in 10 mM Na phosphate at pH 7.5. A reducing reaction composition was made comprising the same buffer, and 10 mM dithiothreitol (DTT). […] For this example, synthesis of compound was conducted as previously described.

Compound | colour of solution after addition of DTT (formation of free dichlorodithiofluorescein dye) ([1]; DTT 10 mM final, within one minute after addition) | colour of control incubation ([1]; no DTT) | mass spectrometry analysis of content of DTT containing reaction ([2]; 10 mM Na phosphate pH 7.5, 10 mM DTT) | fluorescence under reducing conditions ([2]; 10 mM Na phosphate pH 7.5, 10 mM dithiothreitol (DTT), after one minute at room temperature) | mass spectrometry analysis of content of control reaction ([2]; 10 mM Na phosphate pH 7.5, no DTT)
5(6)-Carboxy-2′,7′-dichloro-3′,6′-bis(2′″-trimethylammonium(ethanedithio))fluorescein [compound 12] | turned light blue | remained colorless | – | – | –
CC(=O)O.CC(C)(CCSSCC[N+](C)(C)C)C(=O)Oc1ccc2c(c1)Oc1cc(OC(=O)C(C)(C)CCSSCC[N+](C)(C)C)ccc1C21OC(=O)c2ccccc21 [compound 9, Bis(4-(2′-(trimethylamino)ethanedithio)-2,2-dimethylbutyryl)carboxyfluorescein] | – | – | only fluorescein | strong green fluorescence | only compound 9
